From ChEMBL document CHEMBL1201862, “PubChem BioAssay data set” (2004)
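Step 1: Grow cells in 96-well plates. Step 2: Expose to compound for 48 hours at 5 concentrations. Step 3: Interpolate endpoints linearly; if unreached, use highest concentration. Abbreviation: GI50, concentration required for 50% inhibition of growth.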 The source made the active and inactive calls. No stated cut-off is given here; in the data, active = GI50 up to about 1.1 µM and inactive = higher.

Legend:
Experiment in all cases: inhibition of tumour cell growth, NCI panel, 48 h
Hs-578T = system: Hs-578T
SNB-75 = system: SNB-75
MDA-MB-435 = system: MDA-MB-435
A549 = system: A549
NCI-H522 = system: NCI-H522
RXF 393 = system: RXF 393
M14 = system: M14
UO-31 = system: UO-31
EKVX = system: EKVX
HL-60 = system: HL-60
SK-MEL-28 = system: SK-MEL-28
786-0 = system: 786-0
SK-OV-3 = system: SK-OV-3
A498 = system: A498
SW-620 = system: SW-620
KM12 = system: KM12
SF-539 = system: SF-539
TK-10 = system: TK-10
HOP-92 = system: HOP-92

Measured: GI50

N#CCCN(CCCCN(CCC#N)C(=O)Nc1ccccc1)C(=O)Nc1ccccc1
inactive: Hs-578T > 100 µM | SNB-75 15.5 µM | MDA-MB-435 > 100 µM | A549 > 100 µM | NCI-H522 > 100 µM | RXF 393 24.4 µM | M14 > 100 µM | UO-31 > 100 µM | EKVX > 100 µM | HL-60 > 100 µM | SK-MEL-28 > 100 µM | 786-0 > 100 µM | SK-OV-3 > 100 µM | A498 > 100 µM | SW-620 > 100 µM | KM12 > 100 µM

C=C(CCOC)CCC1CCCCC/C1=N\N(C)C (configuration not stated)
inactive: Hs-578T > 100 µM | SNB-75 > 100 µM | MDA-MB-435 > 100 µM | A549 > 100 µM | NCI-H522 > 100 µM | RXF 393 > 100 µM | M14 > 100 µM | UO-31 > 100 µM | EKVX > 100 µM | HL-60 > 100 µM | SK-MEL-28 > 100 µM | 786-0 > 100 µM | SK-OV-3 > 100 µM | A498 > 100 µM | SW-620 > 100 µM | KM12 > 100 µM

COc1ccc(/C=C/C(=O)c2cc(CN(C)C)c(O)c(CN(C)C)c2)cc1
inactive: Hs-578T 43.6 µM | SNB-75 19 µM | MDA-MB-435 44 µM | A549 27.6 µM | NCI-H522 20.5 µM | SF-539 45.3 µM | RXF 393 31.7 µM | UO-31 25.2 µM | EKVX 49.8 µM | HL-60 22.9 µM | TK-10 40.6 µM | SK-MEL-28 54.2 µM | 786-0 74 µM | A498 19.7 µM | SW-620 36.9 µM | KM12 17.7 µM

N=C(CC(=O)NOC(=O)c1ccccc1)NOC(=O)c1ccccc1
inactive: Hs-578T 36.2 µM | MDA-MB-435 36.3 µM | A549 32.4 µM | SF-539 22.1 µM | RXF 393 10.8 µM | M14 > 100 µM | UO-31 19.1 µM | EKVX 30.9 µM | HOP-92 39.4 µM | HL-60 78.3 µM | TK-10 52 µM | SK-MEL-28 27.5 µM | 786-0 > 100 µM | SK-OV-3 28.7 µM | A498 31.4 µM | SW-620 50.8 µM | KM12 46 µM

O=C(CCCN1CCC2(CC1)CC(=O)N(N1CCCCCC1)C2=O)c1ccc(F)cc1
inactive: Hs-578T 35.7 µM | SNB-75 50.8 µM | MDA-MB-435 > 100 µM | A549 > 100 µM | NCI-H522 52.7 µM | SF-539 > 100 µM | RXF 393 23.6 µM | M14 33.6 µM | UO-31 91.6 µM | EKVX > 100 µM | HL-60 14.1 µM | TK-10 > 100 µM | SK-MEL-28 > 100 µM | 786-0 20.8 µM | SK-OV-3 91.6 µM | A498 62.7 µM | SW-620 > 100 µM
